Test results published in patent US10179141B2, “Certain chemical entities, compositions, and methods” (Suzhou NeuPharma Co., Ltd., priority 2010, dated 2019).
Values after ≈ are worked out from the molar mass of the structure shown.

Tests used:
A549 cells = test: Inhibition of cell growth in tumor cells, MTT assay, A549; type: cell-based; settings: Homo sapiens, 72 h compound exposure
Procedure: (§1) Inhibition of cell growth by compounds was measured using MTT assay (Mosmann, T., Journal of Immunological Methods, 1983, 65, 55-63). Tumor cell lines were purchased from ATCC (American Type Culture Collection, Manassas, Va.). All cell lines were maintained in RPMI 1640 (Hyclone) supplemented with 10% fetal bovine serum (FBS, Hyclone), glutamine (2 mM, Hyclone), and antibiotics (penicillin 100 U/mL and streptomycin 50 μg/mL) at 37° C. in a humidified atmosphere of 5% CO2 in air. Taxol (positive control, Sigma) and compounds were dissolved in DMSO (Sigma), and the final concentration of DMSO in the medium was 1%. Tumor cells were plated in 96-well plates at densities from 4000 cells/well of a 96-well plate and allowed to adhere/grow for 24 h. They were then treated with various concentrations of drug for 72 h. 3-(4,5-Dimethylthiazol-2-yl)-2,5-diphenyltetrazolium bromide (MTT, Sigma) was used to determine the number of viable cells at the time of compound addition and the number of cells remaining after 72 h compound exposure. The number of cells remaining after 72 h was compared to the number of viable cells at the time of compound addition by measuring the absorbance at 570 nm, allowing for the calculation of growth inhibition.
(§2) All concentrations of compounds were tested in triplicate and controls were averaged over 4 wells. IC50 was calculated by plotting the concentration of compound vs the percentage of inhibition in treated wells using GraphPad Prism 5.

Bcap-37 cells = test: Inhibition of cell growth in tumor cells, MTT assay, Bcap-37; type: cell-based; settings: Homo sapiens, Bcap37, 72 h compound exposure
Procedure: as §1, §2

[1] = Measurement of equilibrium solubility in aqueous buffer (HPLC UV); type: physicochemical; settings: aqueous NaOAc/AcOH buffer, thermodynamic from solid, NaOAc/AcOH buffer (100 mM, pH 5.0), shaken at rt for 24 h
Procedure: The equilibrium solubility of compounds is measured in aqueous buffer. Excess amount of solid compound is added into buffer solution and the sample is briefly sonicated and then shaken at rt for 24 h. The sample is filtered and the concentration is analyzed by HPLC UV. A standard solution at 0.2 mg/mL was prepared in methanol or acetonitrile for each compound and used as an external standard for quantification. Data for bufalin and four of the compounds specifically described herein in NaOAc/AcOH buffer (100 mM, pH 5.0) is shown below.

tumor xenografts = test: Inhibition of tumor growth in xenograft model; type: in vivo, BALB/c female nude mice; settings: 10 mg/kg, Q4D × 3, i.v.
Procedure: Cells were implanted in BALB/c female nude mice and grown as tumor xenografts. When tumors achieved 150-200 mm^3, mice were assigned into treatment and control groups using randomized block design based upon their tumor volumes. Each group contained 10 tumor-bearing mice. Tumors were measured twice weekly in two dimensions using a caliper, and the tumor volume was calculated from two-dimensional measurements using the equation V=0.5×a×b^2 where a and b are the long and short diameters of the tumor, respectively. The tumor volume was then used for calculations of T/C values. The T/C value was an indication of antitumor effectiveness; T and C were the mean volume of the treated and control groups, respectively, on a given day.

Row | Compound | IC50 (A549 cells) | IC50 (Bcap-37 cells) | solubility at 24 h [1] | other results
1 | C[C@]12CC[C@H](OC(=O)NCCCC(=O)O)C[C@H]1CC[C@@H]1[C@@H]2CC[C@]2(C)[C@@H](c3ccc(=O)oc3)CC[C@]12O [4-(((((3S,5R,8R,9S,10S,13R,14S,17R)-14-hydroxy-10,13-dimethyl-17-(2-oxo-2H-pyran-5-yl)hexadecahydro-1H-cyclopenta[a]phenanthren-3-yl)oxy)carbonyl)amino)butanoic Acid] | 60 nM |  |  | 
2 | C[C@]12CC[C@H](OC(=O)OCCN3CCCC3)C[C@H]1CC[C@@H]1[C@@H]2CC[C@]2(C)[C@@H](c3ccc(=O)oc3)CC[C@]12O [(3S,5R,8R,9S,10S,13R,14S,17R)-14-hydroxy-10,13-dimethyl-17-(2-oxo-2H-pyran-5-yl)hexadecahydro-1H-cyclopenta[a]phenanthren-3-yl (2-(pyrrolidin-1-yl)ethyl) carbonate] |  | 10.6 nM | 710 µg/mL (≈ 1350 µM) | 
3 | C[C@]12CC[C@H](OC(=O)NCCN3CCCC3)C[C@H]1CC[C@@H]1[C@@H]2CC[C@]2(C)[C@@H](c3ccc(=O)oc3)CC[C@]12O [(3S,5R,8R,9S,10S,13R,14S,17R)-14-hydroxy-10,13-dimethyl-17-(2-oxo-2H-pyran-5-yl)hexadecahydro-1H-cyclopenta[a]phenanthren-3-yl (2-(pyrrolidin-1-yl)ethyl)carbamate] | 2.8 nM | 5.3 nM | 1040 µg/mL (≈ 1970 µM) | 
4 | C[C@]12CC[C@H](OC(=O)OCCN3CCOCC3)C[C@H]1CC[C@@H]1[C@@H]2CC[C@]2(C)[C@@H](c3ccc(=O)oc3)CC[C@]12O [(3S,5R,8R,9S,10S,13R,14S,17R)-14-hydroxy-10,13-dimethyl-17-(2-oxo-2H-pyran-5-yl)hexadecahydro-1H-cyclopenta[a]phenanthren-3-yl (2-morpholinoethyl) carbonate] | 12.2 nM |  |  | 
5 | C[C@]12CC[C@H](OC(=O)NCCN3CCOCC3)C[C@H]1CC[C@@H]1[C@@H]2CC[C@]2(C)[C@@H](c3ccc(=O)oc3)CC[C@]12O [(3S,5R,8R,9S,10S,13R,14S,17R)-14-hydroxy-10,13-dimethyl-17-(2-oxo-2H-pyran-5-yl)hexadecahydro-1H-cyclopenta[a]phenanthren-3-yl (2-morpholinoethyl)carbamate] | 7.4 nM |  |  | 
6 | C[C@]12CC[C@H](OC(=O)N3CCOCC3)C[C@H]1CC[C@@H]1[C@@H]2CC[C@]2(C)[C@@H](c3ccc(=O)oc3)CC[C@]12O [(3S,5R,8R,9S,10S,13R,14S,17R)-14-hydroxy-10,13-dimethyl-17-(2-oxo-2H-pyran-5-yl)hexadecahydro-1H-cyclopenta[a]phenanthren-3-yl morpholine-4-carboxylate] |  | 223 nM |  | 
7 | C[C@]12CC[C@H](OC(=O)N3CCNCC3)C[C@H]1CC[C@@H]1[C@@H]2CC[C@]2(C)[C@@H](c3ccc(=O)oc3)CC[C@]12O [(3S,5R,8R,9S,10S,13R,14S,17R)-14-hydroxy-10,13-dimethyl-17-(2-oxo-2H-pyran-5-yl)hexadecahydro-1H-cyclopenta[a]phenanthren-3-yl piperazine-1-carboxylate] | 1.8 nM |  | 840 µg/mL (≈ 1680 µM) | 
8 | CC(C)[C@@H](N)C(=O)O[C@H]1CC[C@@]2(C)[C@H](CC[C@@H]3[C@@H]2CC[C@]2(C)[C@@H](c4ccc(=O)oc4)CC[C@]32O)C1 [(R)-(3S,5R,8R,9S,10S,13R,14S,17R)-14-hydroxy-10,13-dimethyl-17-(2-oxo-2H-pyran-5-yl)hexadecahydro-1H-cyclopenta[a]phenanthren-3-yl 2-amino-3-methylbutanoate] | 147 nM |  |  | 
9 | CC(C)C[C@@H](N)C(=O)O[C@H]1CC[C@@]2(C)[C@H](CC[C@@H]3[C@@H]2CC[C@]2(C)[C@@H](c4ccc(=O)oc4)CC[C@]32O)C1 [(R)-(3S,5R,8R,9S,10S,13R,14S,17R)-14-hydroxy-10,13-dimethyl-17-(2-oxo-2H-pyran-5-yl)hexadecahydro-1H-cyclopenta[a]phenanthren-3-yl 2-amino-4-methylpentanoate] | 58.8 nM |  |  | 
10 | C[C@@H](N)C(=O)O[C@H]1CC[C@@]2(C)[C@H](CC[C@@H]3[C@@H]2CC[C@]2(C)[C@@H](c4ccc(=O)oc4)CC[C@]32O)C1 [(R)-(3S,5R,8R,9S,10S,13R,14S,17R)-14-hydroxy-10,13-dimethyl-17-(2-oxo-2H-pyran-5-yl)hexadecahydro-1H-cyclopenta[a]phenanthren-3-yl 2-aminopropanoate] | 3.4 nM |  |  | 
11 | CC(C)[C@H](N)C(=O)O[C@H]1CC[C@@]2(C)[C@H](CC[C@@H]3[C@@H]2CC[C@]2(C)[C@@H](c4ccc(=O)oc4)CC[C@]32O)C1 [(S)-(3S,5R,8R,9S,10S,13R,14S,17R)-14-hydroxy-10,13-dimethyl-17-(2-oxo-2H-pyran-5-yl)hexadecahydro-1H-cyclopenta[a]phenanthren-3-yl 2-amino-3-methylbutanoate] |  | 48.9 nM | 120 µg/mL (≈ 247 µM) | 
12 | CC(C)C[C@H](N)C(=O)O[C@H]1CC[C@@]2(C)[C@H](CC[C@@H]3[C@@H]2CC[C@]2(C)[C@@H](c4ccc(=O)oc4)CC[C@]32O)C1 [(S)-(3S,5R,8R,9S,10S,13R,14S,17R)-14-hydroxy-10,13-dimethyl-17-(2-oxo-2H-pyran-5-yl)hexadecahydro-1H-cyclopenta[a]phenanthren-3-yl 2-amino-4-methylpentanoate] | 15.1 nM |  |  | 
13 | C[C@H](N)C(=O)O[C@H]1CC[C@@]2(C)[C@H](CC[C@@H]3[C@@H]2CC[C@]2(C)[C@@H](c4ccc(=O)oc4)CC[C@]32O)C1 [(S)-(3S,5R,8R,9S,10S,13R,14S,17R)-14-hydroxy-10,13-dimethyl-17-(2-oxo-2H-pyran-5-yl)hexadecahydro-1H-cyclopenta[a]phenanthren-3-yl 2-aminopropanoate] |  | 15.9 nM |  | 
14 | C[C@]12CCC(O)C[C@H]1CC[C@@H]1[C@@H]2CC[C@]2(C)[C@@H](c3ccc(=O)oc3)CC[C@]12O (some centres unmarked) [Bufalin, reference compound] | 4.4 nM | 14 nM | 41 µg/mL (≈ 106 µM) | 
15 | CC(=O)O[C@H]1C(=O)[C@@]2(C)[C@H]([C@H](OC(=O)c3ccccc3)[C@]3(O)C[C@H](OC(=O)[C@H](O)[C@@H](NC(=O)c4ccccc4)c4ccccc4)C(C)=C1C3(C)C)[C@]1(OC(C)=O)CO[C@@H]1C[C@@H]2O [Paclitaxel] |  |  |  | T/C (tumor xenografts; mean tumor volume treated/control): 74.6%; Tumor Volume Post-treatment (tumor xenografts; nude mouse xenograft): 391 ± 43 mm^3
